Test results taken from ChEMBL document CHEMBL1212748, “Patients with long-term oral carriage harbor high-persister mutants of Candida albicans” (2010).
≈ marks a conversion by molar mass, not a printed value. Calls of active or inactive are those of the source. The rule behind the calls is not given here.

How the values were obtained:
[1] = system: Candida albicans; experiment: Antimicrobial activity against Candida albicans high-persister mutants after 48 hrs by broth microdilution method; format: functional
[2] = system: Candida albicans; experiment: Antimicrobial activity against Candida albicans CAF2-1 assessed as microbial death at 10 to 100 ug/ml after 48 hrs by broth microdilution method; format: functional, organism-based
[3] = system: Candida albicans; experiment: Antimicrobial activity against Candida albicans low-persister mutants assessed as microbial death at 10 to 100 ug/ml after 48 hrs by broth microdilution method; format: functional, organism-based
[4] = system: Candida albicans; experiment: Antimicrobial activity against Candida albicans high-persister mutants assessed as microbial death at 10 to 100 ug/ml after 48 hrs by broth microdilution method; format: functional, organism-based
[5] = system: Candida albicans; experiment: Antimicrobial activity against Candida albicans high-persister mutants assessed as microbial death at 50 ug/ml after 48 hrs by broth microdilution method; format: functional, organism-based

N=C(NCCCCCCNC(=N)NC(=N)Nc1ccc(Cl)cc1)NC(=N)Nc1ccc(Cl)cc1 [CHLORHEXIDINE]
MIC [1]: 1.5 mg/L (≈ 2.97 µM)

C[C@@H]1[C@H](O)[C@@H](C)/C=C/C=C/C=C/C=C/C=C/C=C/C=C/[C@H](O[C@@H]2O[C@H](C)[C@@H](O)[C@H](N)[C@@H]2O)C[C@@H]2O[C@](O)(C[C@@H](O)C[C@@H](O)[C@H](O)CC[C@@H](O)C[C@@H](O)CC(=O)O[C@H]1C)C[C@H](O)[C@H]2C(=O)O
Activity [2]: Active | Activity [3]: Active | Activity [4]: Active | Activity [5]: inactive
